Measured values from patent US6692939B2, “Nucleotide sequences encoding mammalian calcium activated chloride channel-adhesion molecules” (Cornell Research Foundation, Inc., priority 1997, dated 2004).

B1: wtLu-ECAM-1: wild type Lu-ECAM-1 purified with mAb 6D3 from extracts of bovine aortic endothelial cells (protein)
chain: MVLCLNVILFLTLHLLPGMKSSMVNLINNGYDGIVIAINPSVPEDEKLIENIKEMVTEASTYLFHATKRRVYFRNVSILIPMTWKSKSEYFIPKQESYDQADVIVANPYLKYGDDPYTLQYGRCGEKGKYIHFTPNFLLTNNFHIYGSRGRVFVHEWAHLRWGIFDEYNVDQPFYISRKNTIEATRCSTHITGINVVFKKCPGGSCITSLCRRDSQTGLYEAKCTFLPKKSQTAKESIMFMPSLHSVTEFCTEKTHNTEAPNLQNKMCNGKSTWDVIMNSVDFQNTSPMTEMNPPTHPTFSLLKSKQRVVCLVLDKSGSMSAEDRLFQMNQAAELYLIQVIEKGSLVGMVTFDSVAEIQNHLTRITDDNVYQKITAKLPQVANGGTSICRGLKAGFQAIIHSDQSTSGSEIILLTDGEDNEINSCFEDVKRSGAIIHTIALGPSAAKELETKSNMTGGYRFFANKDITGLTNAFSRISSRSGSITQQAIQLESKALKITGRKRVNGTVPVDSTVGNDTFFVVTWTIQKPEIVLQDPKGKKYKTSDFKEDKLNIRSARLQIPGIAETGTWTYSLLNNHASSQMLTVTVTTRARSPTIPPVIATAHMSQHTAHYPSPMIVYAQVSQGFLPVLGISVIAIIETEDGHQVTLELWDNGAGRDTVKNDGIYSRYFTDYYGNGRYSLKVHAQARNNTARLNLRQPQNKVLYVPGYVENGKIILNPPRPEVKDDLAKAKIEDFSRLTSGGSFTVSGAPPPGNHPSVFPPSKITDLEAKFKEDYIQLSWTAPGNVLDKGKANSYIIRISKSFMDRQEDFDNATLVNTSNLIPKEAGSKENFEFKPEHFRVENGTKFYISVQAINEANLISEVSHIVQAIKFIPLPEDSVHDLGTKISEITLAILGLPMIFSVF
modifications: OTHER INFORMATION: Lu-ECAM-1 precursor from bovine endothelial cells
notes: wild type Lu-ECAM-1 purified with mAb 6D3 from extracts of bovine aortic endothelial cells

Experiments:
mCLCA1 = experiment: whole cell recording in mCLCA1-transfected HEK293 cells; format: cell-based, murine; conditions: for effect on Ca2+ sensitive chloride current under whole cell conditions: mCLCA1-transfected HEK293 cells
Excerpt: (§1) In another embodiment of the invention, mCLCA1 cDNA was cut from the pBluescript vector (Stratagene) with SacI and PvuI, blunt ended with Klenow Polymerase and inserted into the tetracycline sensitive mammalian expression vector (pTet-splice, Life Technologies, Inc.) at the EcoRV site. HEK293 cells were cotransfected with mCLCAl cDNA cloned into the pTet-splice along with a vector expressing a tetracycline activator (pTet-tTak) using standard transfection techniques well known to those skilled in the art and as described above (Lipofectamine, Life Technologies, Inc.). Cells were cotransfected with a reporter vector as described above. In another illustration of this embodiment, human CLCA1, HEK293 cells were transfected with either pcDNA 3.1 containing the CLCA1 insert and a reporter vector (enhanced green fluorescent protein, EGFP, CLONTECH) or the reporter vector alone. Transfection can be carried out by standard techniques known to those skilled in the art including CaPO4 precipitation or Lipofectamine (Life Technologies).
(§2) This embodiment illustrates that the full length cDNAs of the present invention encode calcium sensitive chloride channels. The various cDNAs were used for transfection of a cell line. For electrophysiological studies, cells were also cotransfected with a reporter vector (pEGFP, CLONTECH). Cotransfection with a reporter vector allows for easy identification of transfected cells by visualization under a fluorescent microscope. Whole cell recording was then carried out in the transfected cells to determine the presence of calcium sensitive chloride channels.
(§3) Transfected cells were used for electrophysiological recording. Cells were superfused with a bath solution containing 112 mM NMDG-Cl, 30 mM sucrose, 1 mM EGTA, 0.366 mM CaCl2, 2 mM MgCl2, 5 mM N-2-hydroxy-xyethanylpiperazine-N-2-ethanesulfonic acid. Whole cell channel activity was recorded in transfected cells by using borosilicate glass electrodes (tip resistance 4-9 M ohms) filled with the bath solution. Recordings were carried out in the presence or absence of a […] channel inhibitors (DIDS, niflumic acid and DTT). To determine the effect of ionomycin on channel activity, electrodes filled with standard bath solution containing either 5 mM ATP and 1 mM EGTA in the presence of low intracellular calcium. After gigaohm seal formation, cells were clamped at +20 mV. Whole cell currents were recorded at room temperature, sampled at 5-10 kHz and filtered at 1-2 kHz. The I-V relationship was determined using 300 ms voltage steps from a holding potential of +20 mV to potentials from −100 to +100 mV at 10 mV intervals. To normalize measured membrane currents to membrane currents to membrane capacitance, the capacitive current transient recorded in response to a 10 mV hyperpolarizing pulse was integrated and divided by the given voltage to give total membrane capacitance (Cm) for each cell.

hCLCA1 = experiment: whole cell recording in hCLCA1-transfected HEK293 cells; format: cell-based, human; conditions: for whole cell current after addition of inhibitor: hCLCA1-transfected cells, activated current 11.06 pA/pF
Excerpt: as §1, §2
as §3, with “To determine the effect of ionomycin on channel activity, electrodes filled with standard bath solution containing either 5 mM ATP and 1 mM EGTA in the presence of low intracellular calcium. After gigaohm seal formation, cells were clamped at +20 mV.” left out

hCLCA2 = experiment: whole cell recording in hCLCA2-transfected HEK293 cells; format: cell-based, human; conditions: for sensitivity of the current to inhibitor: DIDS 300 uM, DTT 2 mM, niflumic acid 100 uM, tamoxifen 10 uM
Method: For human CLCA2, HEK293 cells were transfected using Lipofectamine using manufacturer's instructions. For example, 5 ul lipid and 0.5 ul of CLCA2 were cloned into pcDNA 3.1 per 35 mm well in a 2-3 hour incubation. For expression studies, the 2,832 bp CLCA2 ORF was PCR amplified from human trachea poly-A^+RNA (Clontech) following reverse transcription with Superscript RNase H reverse transcriptase (Life Technologies) and random hexamer priming. PCR was performed with Pwo DNA Polymerase (Boehringer; initial denaturation at 94° C. for 3 min, 35 cycles of 94° for 50 s, 58° C. for 30s, and 72° C. for 2 min with a time increment of 3 s per cycle for each extension step (72° C.), followed by a final extension step of 72° C. for 8 min). Primer sequences were (upstream primer: SEQ ID NO:41, downstream primer: SEQ ID NO:42 with NotI-linkers underlined). PCR products were gel purified, incubated with NotI, and cloned into the expression vector pcDNA3.1 (Invitrogen). Four different PCR products were sequenced to control for potential PCR-induced sequence errors. Cells were simultaneously cotransfected with a reporter vector as described above. Chloride channel conductance activity was recorded after allowing the cells to recover for 24 hours.
as §2, §3

[1] = system: non-transfected or control-transfected cells; experiment: whole cell recording in non-transfected or control-transfected cells; format: cell-based; conditions: ionomycin 2 uM
Method: as §2
Transfected cells were used for electrophysiological recording. […] Whole cell channel activity was recorded in transfected cells by using borosilicate glass electrodes (tip resistance 4-9 M ohms) filled with the bath solution. […] Whole cell currents were recorded at room temperature, sampled at 5-10 kHz and filtered at 1-2 kHz. The I-V relationship was determined using 300 ms voltage steps from a holding potential of +20 mV to potentials from −100 to +100 mV at 10 mV intervals. To normalize measured membrane currents to membrane currents to membrane capacitance, the capacitive current transient recorded in response to a 10 mV hyperpolarizing pulse was integrated and divided by the given voltage to give total membrane capacitance (Cm) for each cell.

[2] = system: lung-metastatic B16-Fl0 melanoma cells; experiment: tumor cell adhesion assay on Lu-ECAM-1 coated wells; format: cell-based; conditions: wells coated with 100 μg/ml protein; 10 minutes at 37° C.
Method: Recombinant (r) Lu-ECAM-1 and wild type (wt) Lu-ECAM-1 were compared in their adhesion ability to lung-metastatic B16-Fl0 melanoma cells. Using anti-Lu-ECAM-1 mAb 6D3, wtLu-ECAM-1 was purified from extracts of bovine aortic endothelial cells, and rLu-ECAM-1 was purified from extracts of transfected HEK293 cells. The tumor cell adhesion assay was performed as described previously (Zhu et al., 1992, supra). Briefly, 100 μg/ml in phosphate buffered saline of either wtLu-ECAM-1 or rLu-ECAM-1 was used to coat wells of 96 plates overnight at 4° C. Wells were then washed with tissue culture medium, and each well is seeded with a suspension of tissue culture medium and 2×10^4 tumor cells which had been radio-labelled. After being spun onto the coated wells at 15 g for 1 minute, and incubated for 10 minutes at 37° C., nonadherent tumor cells were spun off at 150 g for 5 minutes. Adherent tumor cells were then dissolved in 1% SDS and counted in a liquid scintillation counter. Tumor cell attachment is recorded as the percent cells bound of the total cells seeded. Inhibition of tumor cell adhesion is determined by first incubating the Lu-ECAM-1 coated wells with mAb 6D3 (10 μg/ml) for 1 hour at room temperature before the tumor cells are added.

B1GF10 melanoma cells = conditions: mouse, in vivo; cited from earlier work

Row | Molecule | effect on Ca2+ sensitive chloride current under whole cell conditions (mCLCA1) | whole cell current after addition of inhibitor (hCLCA1) [pA/pF] | sensitivity of the current to inhibitor (hCLCA2) | further results
1 | O=S(=O)(O)c1cc(N=C=S)ccc1C=Cc1ccc(N=C=S)cc1S(=O)(=O)O [DIDS] | inhibited | 1.63 | sensitive | whole cell current after perfusion of inhibitor (mCLCA1; 300 uM DIDS, 2 mM Ca2+, basal 12.01±6.31 pA/pF): 1.84 ±0.96 pA/pF
2 | O[C@@H](CS)[C@@H](O)CS [DTT] | inhibited | 1.67 | sensitive | 
3 | C[C@H](CCC(=O)O)C[C@H](C)C[C@H](C)C(=O)/C=C(\O)[C@H](C)C[C@H](C)C/C=C/[C@@H](C)[C@@H](O)[C@@H](C)[C@@H](O)C[C@@H]1CC[C@@](C)([C@H]2CC[C@@](C)([C@@H](C)O)O2)O1 [ionomycin] |  |  |  | whole cell current at +100 mV with ionomycin (mCLCA1; ionomycin 2 uM, low intracellular free Ca2+, basal 2.05±1.09 pA/pF): 10.23±3.46 pA/pF; maximally activated current at +100 mV after external perfusion of ionomycin (hCLCA1; ionomycin 2 uM, increase from 0.65 pA/pF): 11.06 pA/pF; activation of the current by ionomycin (hCLCA2; ionomycin 4 uM in bath, pipet about 25 nM Ca2+, 2 mM Ca2+ in the bath): activated the current; effect of ionomycin on current in non-transfected or control-transfected cells [1]: No significant effect
4 | O=C(O)c1cccnc1Nc1cccc(C(F)(F)F)c1 [niflumic acid] | inhibited | 2.07 | sensitive | 
5 | CC/C(=C(\c1ccccc1)c1ccc(OCCN(C)C)cc1)c1ccccc1 [tamoxifen] |  |  | sensitive | 
6 | B1 |  |  |  | adhesion of lung-metastatic tumor cells supported (percent cells bound of the total cells seeded) [2]: 43%; prevention or inhibition of metastatic colonization of the lungs by B1GF10 cells (B1GF10 melanoma cells): inhibition of metastatic colonization
